Entries after “also recorded” stand apart in the source; their conditions may differ. Residues, ends and D or L forms follow the SMILES beside them.
Columns and labels:
[1] = test system: male, New Zealand white pasteurella-free rabbits; test: Rabbit sleep (EEG) and body temperature after ICV injection; assay type: in vivo; details: for Colonic Temperature Start: at the time of injection; for Colonic Temperature End: end of 6-h recording session; for NREMS / REMS: six-hour recording period
Excerpt: A lateral cerebral ventricular guide cannula, a thermistor, and stainless steel screw electroencephalographic (EEG) electrodes were surgically implanted into male, New Zealand white pasteurella-free rabbits (about 3.5 kg). EEG electrodes were placed over the frontal and parietal cortices A 50,000 ohm calibrated thermistor (Model 4018, Omega Engineering, Stamford, Conn.) was implanted over the parietal cortex to measure brain temperature (Tbr). Insulated leads from the screws and the thermistor were routed to an amphenol plug attached to the skull with dental acrylic (DUZ-ALL, Coralite Dental Products, Skokie, Ill.). The guide cannula was placed in the left lateral cerebral ventricle. A minimum of two weeks was allowed for recovery before the animals were habituated to the recording chambers (Hotpack 352600, Philadelphia, Pa.). Food and water were available ad libitum. Each recording chamber contained an electronic swivel (Stoelting, Chicago, Ill.) suspended by a shock-absorbing system. A flexible tether connected the swivel to the Amphenol connector on the rabbit's head, thus allowing freedom of movement. An accelerometer (Grass, SPAI, Quincy, Mass.) attached to the shock-absorbing system provided an indication of body movement. The cables from the swivel and the accelerometer were connected to Grass 7D polygraphs in an adjacent room. The polygraphs recorded EEG, Tbr, and body movement for each animal. The EEG for each rabbit was passed through band-pass filters with the 0.5-3.5 Hz (delta), 4.0-7.5 Hz (theta), 8.0-12.5 Hz (alpha), and 13.0-15.0 Hz (beta) frequency bands rectified and averaged for 1-min intervals by a Buxco model 24/32 data logger (Buxco Electronics, Sharon, Conn.). These values for 1-min periods were used to compute hourly averages. EEG amplitudes in the delta frequency band during 1-min epochs of NREMS for each of the six postinjection hours were also determined. The 10 samples of greatest magnitude in each hour were averaged for each rabbit during control and test NREM sleep periods. […] Tbr S were also recorded using a data logger (Acrosystems 400, Beverly, Mass.), with values for each rabbit sampled at 10-min intervals. NREM sleep and REM sleep were measured as a percent of time over a six-hour recording period. Colonic temperatures (Tco) were taken with a flexible thermistor (YSI, Inc., Yellow Springs, Ohio) at the time of injection and at the end of 6-h recording session. IL1 fragments were dissolved in appropriate volumes of artificial cerebrospinal fluid (aCSF) (2 mM KC1, 1.15 mM CaCl2, and 0.96 mM MgCl2 in pyrogen free saline, […] NaCl [Abbott, N. Chicago, Ill.] Hu-rIL1β was supplied in phosphate-buffered saline (PBS) (0.4 mg/ml). All substances were injected into a lateral cerebral ventricle (ICV). Injection volumes were 12-25 μl per rabbit; each injection lasted about 2 min. Animals were injected between 0900 and 1000 h. Control recordings were obtained from each animal after injection of vehicle (aCSF). After injections, animals were recorded from the next 6 h. Data from all experiments were analyzed with the SPSS^x Information System. Friedman's test for k-related samples was used to test for differences across the 6-h recording periods. If significant differences were indicated, the Wilcoxon matched-pairs signed-ranks test was used to identify the specific hours in which the differences occurred. An alpha level of P<0.05 was accepted as indicating significance.

Murine D10 Cells = test: T cell proliferation assay, [3H] thymidine incorporation in murine T cell line D10; assay type: cell-based, mouse
Experimental: Thymus glands were removed from 6-10 week old CD1 mice after mice had been sacrificed by cervical dislocation. Thymocytes were isolated by gently homogenizing the thymus glands in a dounce homogenizer. Thymocytes were suspended in RPMI 1640 containing 7.5% FCS and 5×10-^6 M 2-mercaptoethanol. Aliquots of the cell suspension (100 μl) were dispensed into wells of flat bottom microtiter plates (Linbro Plastics), and samples (50 μl) suspended in RPMI 1640 were added to appropriate wells. Plates were incubated at 37° C., 5% CO2, in a humidified atmosphere for 60 h, and wells were pulsed with [^3 H] thymidine (1 μCi, […]) for 12h. After the 12-h pulse, cells were harvested onto paper filter pads with a multiple-sample harvester, and thymocyte proliferation was determined by scintillation counting. In some experiments, the murine T cell line D10 was used instead of thymocytes as target cells using phytohemmagglutinin (1 μg/ml) as costimulant.

IL1β: Recombinant human IL1β prepared by Cistron Biotechnology, Incorporated
Colonic Temperature Start ([1]; 5 ng ICV): 39.2 (0.0) °C
Colonic Temperature End ([1]; 5 ng ICV): 40.0 (0.1) °C
NREMS ([1]; 5 ng ICV): 53.3 (3.2) percent of time
REMS ([1]; 5 ng ICV): 4.4 (0.8) percent of time
Colonic Temperature Start ([1]; 20 ng ICV): 39.3 (0.1) °C
Colonic Temperature End ([1]; 20 ng ICV): 41.0 (0.3) °C
NREMS ([1]; 20 ng ICV): 61.5 (4.3) percent of time
REMS ([1]; 20 ng ICV): 2.1 (0.6) percent of time

199-228: synthetic fragment of IL1β, amino acids 199-228 (ESVDPKNYPKKKMEKRFVFNKIEINNKLEF; UniProt P01584 199-228, looked up, fragment) [Peptide 199-228]
T cell proliferation (in words) (Murine D10 Cells; murine D10 cells (Table 2)): stimulated T cell proliferation
[3H] Thymidine Incorporation, Murine D10 Cells (Murine D10 Cells; standard deviation in, phytohemmagglutinin 1 μg/ml as costimulant): 2799 (652) counts per minute
Colonic Temperature Start ([1]; 25 μg ICV): 39.3 (0.1) °C
Colonic Temperature End ([1]; 25 μg ICV): 39.4 (0.1) °C
NREMS ([1]; 25 μg ICV): 50.9 (3.9) percent of time
REMS ([1]; 25 μg ICV): 20.0 (1.2) percent of time
somnogenic and pyrogenic activity: effect on sleep or Tbr (in words) ([1]; ICV, doses of Table 3): failed to alter sleep or Tbr

CC[C@H](C)[C@H](NC(=O)[C@H](CCC(=O)O)NC(=O)[C@@H](NC(=O)[C@H](CCCCN)NC(=O)[C@H](CC(N)=O)NC(=O)[C@H](Cc1ccccc1)NC(=O)[C@@H](NC(=O)[C@H](Cc1ccccc1)NC(=O)[C@H](CCCNC(=N)N)NC(=O)[C@H](CCCCN)NC(=O)[C@H](CCC(=O)O)NC(=O)[C@H](CCSC)NC(=O)[C@H](CCCCN)NC(=O)[C@H](CCCCN)NC(=O)[C@@H](N)CCCCN)C(C)C)[C@@H](C)CC)C(=O)N[C@@H](CC(N)=O)C(=O)N[C@@H](CC(N)=O)C(=O)N[C@@H](CCCCN)C(=O)N[C@@H](CC(C)C)C(=O)N[C@@H](CCC(=O)O)C(=O)N[C@@H](Cc1ccccc1)C(=O)N[C@@H](CCC(=O)O)C(=O)N[C@@H](CO)C(=O)N[C@@H](C)C(=O)N[C@@H](CCC(N)=O)C(=O)N[C@@H](Cc1ccccc1)C(=O)N1CCC[C@H]1C(=O)N[C@@H](CC(N)=O)C(=O)N[C@@H](Cc1c[nH]c2ccccc12)C(=O)N[C@@H](Cc1ccc(O)cc1)C(=O)N[C@H](C(=O)N[C@@H](CO)C(=O)N[C@H](C(=O)O)[C@@H](C)O)[C@@H](C)CC [Peptide 208-240] (H-KKKMEKRFVFNKIEINNKLEFESAQFPNWYIST-OH)
abnormal behavior after injection ([1]; 25 μg ICV): no appearance of abnormal behavior; also recorded: did not appear to induce abnormal behavior
